Like-named read-outs stand apart in the source and are kept apart here. Blank lines part the entries; values can stand above or below the molecule they belong to. Ends that are not written are not given here.
What was measured:
[1] = Physico-chemical characteristics: solubility; conditions: solvent giving clear and colourless solution at 1 mg/ml
T-cells [2] = assay: Summary of in vitro immunogenicity (killer assay, cytokine release/staining, tetramer detection); format: cell-based, human; conditions: reference: unpublished
Procedure: As in the latter case, several tumour cell lines endogenously expressing the antigen are also recognized.
IMA contains 10 HLA class I-binding peptides. To test the peptides regarding their in vitro immunogenicity, CD8-positive cytotoxic T-cells were generated from autologous peripheral blood mononuclear cells (PBMC) from healthy donors using single peptides contained in IMA and the activity of these cytotoxic T-cells was tested with chromium release assays and detection of T-cells with HLA tetramers in flow cytometry. Detailed data is shown for one exemplary peptide (IMA-MET-001) for both methods, the data for the other peptides is summarized in Table 8 above.
In the first step, cytotoxic T-cells are generated (primed) in vitro by repeated stimulation of peripheral blood mononuclear cells (PBMC) from healthy HLA-A*02 positive donors with the specific peptide to be tested. The priming can be done either using autologous dendritic cells generated from blood monocytes of the donor or using HLA tetramer-loaded beads.
A. Cytotoxic killing of target: In the second step, cytoxicity of such primed cytotoxic T-cells (CTLs) are tested by labelling target cells with radioactive chromium and incubating target cells with generated CTLs. The amount of radioactive chromium released into the supernatant can be correlated directly to proportion of killed target cells.
B. Detection of T-cells with HLA tetramers: Alternatively, in the second step primed CTLs with specificity for a given peptide are detected using HLA tetramers. Tetramers consist of four peptide-loaded HLA-A*02 molecules coupled to each other. These constructs allow specific labelling of the cognate T-cell receptor that recognizes the HLA-peptide-complex in the tetramer and by labelling of the tetramer with a fluorochrome followed by analysis in flow cytometry (FACS).

renal cell carcinoma = conditions: monotherapy, advanced RCC; cited from earlier work
T-cells [3] = conditions: reference: published literature; cited from earlier work
CD4-positive T-cells = assay: Intracellular IFNγ staining of in vitro primed CD4-positive T-cells; format: cell-based, human
Procedure: First, CD4-positive T-cells were generated (primed) in vitro by repeated stimulation of peripheral blood mononuclear cells (PBMC) from healthy donors with the specific peptide to be tested in the presence of IL-12. The priming was performed using autologous dendritic cells generated from blood monocytes of the donors. In the second step, the activity of primed CD4-positive T-cells specific for the given peptide were tested by measurement of IFNγ production by intracellular IFNγ staining using a fluorescently labelled antibody. The analysis was done by flow cytometry (FACS).
Human DCs were prepared out of PBMCs from freshly drawn blood from healthy donors. PBMCs were isolated using a Ficoll density gradient (Lymphocyte Separation Medium, PAA Laboratories GmbH, Pasching, Austria). The obtained cells were washed, resuspended in X-Vivo 15 medium supplemented with 50 U/ml penicillin, 50 μg/ml streptomycin and 2 mM L-Glutamine (BioWhittaker, Verviers, Belgium) and plated at a density of 7×10^6 cells/ml. […]
Cryopreserved PBMCs were thawed, washed two times in X-Vivo 15 medium, resuspended at 10^7 cells/ml in T-cell medium and cultured overnight to reduce unspecific IFNγ production (Provenzano 2002). […] Cells were analyzed using a Cytofix/Cytoperm Plus kit (Becton Dickinson) and CD4-FITC− (Immunotools), IFNγ-PE- and CD8-PerCP clone SKI-antibodies (Becton Dickinson). After staining, cells were analyzed on a three-color FACSCalibur (Becton Dickinson).
To generate antigen-specific CD4-positive T-cells and to test the peptide on promiscuous binding, PBMCs of 4 healthy donors with different HLA-DR alleles (FIG. 7) were stimulated using peptide-pulsed autologous DCs. As a read-out system for the generation of antigen-specific CD4-positive T-cells IFNγ production was assessed by flow cytometry. T-cells were analyzed after the third and the fourth stimulation by intracellular IFNγ staining plus CD4-FITC and CD8-PerCP staining to determine the percentage of IFNγ-producing cells in specific T-cell subpopulations. […]

[4] = University of Tübingen trial, cited from earlier work
T-cells [5] = conditions: peptide not vaccinated; not present prior to vaccination; 2 RCC patients; cited from earlier work
[6] = system: HLA-A*02 positive cell lines HCT 116, A498, MZ 1257, MCF-7, MeI 1479 and U266 that express c-Met; conditions: HLA-A2+/c-Met+ cell lines; SK-OV-3, Croft, K 562 not recognized; cited from earlier work
[7] = system: peptide loaded T2 cells and autologous DC; conditions: cited from earlier work
U 266 and A 498 = conditions: inhibitor to target ratio 20:1; cited from earlier work
[8] = biological target: T1, biotinylated recombinant HLA-A*0201 molecules lacking the transmembrane domain (human, biotinylated at the carboxy terminus of the heavy chain); assay: tetrameric recombinant HLA-A*0201 multimer loaded with the peptide, flow cytometry reagent
T1 construct: tetramerised on streptavidin-PE or streptavidin-APC at a 4:1 molar ratio, or coupled to streptavidin beads; also called HLA-A*0201 tetramer; HLA tetramers

[9] = biological target: T1, biotinylated recombinant HLA-A*0201 …; assay: recombinant HLA-A*0201 refolded with the peptide, used on beads and as tetramer

- Solubility (Clear and colourless solution 1 mg/ml) [1]: water
Molecule: ALADGVQKV-OH [IMA-APO-001]

- Solubility (Clear and colourless solution 1 mg/ml) [1]: 20% acetic acid
Molecule: ALFDGDPHL-OH [IMA-K67-001]
- In vitro immunogenicity (assay by which shown) (T-cells [2]): Tetramer detection

- Solubility (Clear and colourless solution 1 mg/ml) [1]: 50% acetic acid
Molecule: LLGATCMFV-OH [IMA-CCN-001]
- In vitro immunogenicity (assay by which shown) (T-cells [3]): Killer assay (allogeneic T cells)

- Solubility (Clear and colourless solution 1 mg/ml) [1]: 10% acetic acid
Molecule: SVASTITGV-OH [IMA-ADF-001]
- specific T-cells after vaccination with non-related MUC peptides (epitope spreading) (T-cells [5]): detected
- In vitro immunogenicity (assay by which shown) (T-cells [3]): Killer assay

- Solubility (Clear and colourless solution 1 mg/ml) [1]: 10% acetic acid
Molecule: VMAGDIYSV-OH [IMA-ADF-002]
- In vitro immunogenicity (assay by which shown) (T-cells [2]): Tetramer detection

- binding result [8]: binds
Molecule: ALFDGDPHL (HLA class I TUMAP) [IMA-K67-001 (peptide from KIAA0367)]

- binding result [8]: binds
B2: IMA-CCN-001 (peptide from Cyclin D1) (peptide)
peptide: LLGATCMFV
notes: HLA class I TUMAP; not identified by elution from tumour tissue; also called rCCN-001; CNN-001

Continued, molecule first:

Molecule: IFNα
- response rate, initially reported (renal cell carcinoma): 25-30%
- true response rate suggested by additional trials (renal cell carcinoma): about 10%

Molecule: LAALPHSCL-OH [IMA-RGS-001]
- Solubility (Clear and colourless solution 1 mg/ml) [1]: water
- In vitro immunogenicity (assay by which shown) (T-cells [2]): Tetramer detection

Molecule: SQDDIKGIQKLYGKRS-OH [IMA-MMP-001]
- healthy donors in whom CD4-positive T-cell responses were elicited (CD4-positive T-cells; 4 healthy donors with different HLA-DR alleles, positive if more than two fold over negative control): three out of four
- CD4-positive T-cell reactivity (intracellular IFN gamma) (CD4-positive T-cells; Donor 1, 2 and 3, after the third and the fourth stimulation): showed CD4-positive T-cells reactive
- CD4-positive T-cell reactivity (intracellular IFN gamma) (CD4-positive T-cells; Donor 4): always negative
- In vitro immunogenicity (assay by which shown) (T-cells [2]): Cytokine staining

Molecule: STAPPVHNV-OH [IMA-MUC-001]
- Solubility (Clear and colourless solution 1 mg/ml) [1]: 10% acetic acid
- autoimmune effects ([4]; administered with autologous dendritic cells): no autoimmune effects
- tolerability ([4]; loaded on dendritic cells): very well tolerated
- In vitro immunogenicity (assay by which shown) (T-cells [3]): Killer assay, cytokine release

Molecule: SVFAGVVGV-OH [IMA-GUC-001]
- Solubility (Clear and colourless solution 1 mg/ml) [1]: 90% acetic acid

Molecule: YVDPVITSI-OH [IMA-MET-001]
- lysis of tumour cells endogenously expressing c-Met by induced CTL [6]: able to efficiently lyse malignant cells expressing both HLA-A2 and c-Met
- cytotoxicity of induced CTL against peptide-loaded targets [7]: antigen-specific killing
- effect of cold T2-cells pulsed with cognate peptide on lysis of tumour cells (U 266 and A 498): reduced the lysis of tumour cells
- In vitro immunogenicity (assay by which shown) (T-cells [3]): Killer assay, cytokine staining, tetramer

B1: IMA-MET-001 (peptide from c-met proto-oncogene) (peptide)
peptide: YVDPVITSI
notes: HLA class I TUMAP; also called c-Met peptide
- binding result [9]: binds
